In patent publication US7192746B2, “α-Isomaltosyltransferase, process for producing the same and use thereof” (Kabushiki Kaisha Hayashibara Seibutsu Kagaku Kenkyujo, priority 2000, dated 2007):

Assays:
Format in all cases: biochemical
[1] = test system: α-isomaltosyl-transferring enzyme from Arthrobacter globiformis A19; test: Action on saccharides (substrates, TLC); parameters: key: −: there was found no substrate change before and after the enzymatic reaction; +: there were found both the reduction of substrate and the formation of cyclotetrasaccharide after the enzymatic reaction; conditions: partially purified enzyme, 2 units/g substrate, 2% (w/v) substrate, 30° C., pH 6.0, 24 hours
Source text: (§1) To examine the saccharides in the supernatant, they were separated from the supernatant by silica gel thin-layer chromatography (abbreviated as “TLC” hereinafter) using, as a developer, a mixture solution of n-butanol, pyridine, and water (=6:4:1), and, as a thin-layer plate, “[…] 60”, an aluminum plate (20×20 cm) for TLC commercialized by […]. The coloration of both the separated total sugars by the sulfuric acid-methanol method and the reducing saccharides by the diphenylamine-aniline method detected a non-reducing saccharide at a position with an Rf value of about 0.31, which was positive on the former detection method but negative on the latter detection method.
(§2) It was tested whether saccharides can be used as substrates for the α-isomaltosyl-transferring enzyme. For the purpose, a solution of maltose, maltotriose, maltotetraose, maltopentaose, maltohexaose, maltoheptaose, isomaltose, isomaltotriose, panose, isomaltosylmaltose, isopanose, α,α-trehalose, kojibiose, nigerose, α,β-trehalose, cellobiose, gentibiose, maltitol, maltotriitol, lactose, sucrose, α-cyclodextrin, β-cyclodextrin, γ-cyclodextrin, soluble starch, pullulan, or dextran was prepared. To each of the above solutions was added two units/g substrate of a purified specimen of either α-isomaltosyl-transferring enzyme from Bacillus globisporus C9 obtained by the method in Experiment 4, Bacillus globisporus C11 obtained by the method in Experiment 7, Bacillus globisporus N75 obtained by the method in Experiment 11, or Arthrobacter ramosus S1 obtained by the method in Experiment 15, or a partially purified α-isomaltosyl-transferring enzyme from Arthrobacter globiformis A19 obtained by the method in Experiment 15. The resulting each solution was adjusted to give a substrate concentration of 2% (w/v) and incubated at 30° C. and pH 6.0 for 24 hours. The enzyme solutions before and after the enzymatic reactions were respectively analyzed on TLC as disclosed in Experiment 1 to confirm whether the enzymes acted on these substrates.

[2] = test system: α-isomaltosyl-transferring enzyme from Arthrobacter ramosus S1; test: Action on saccharides (substrates, TLC); parameters: key: −: there was found no substrate change before and after the enzymatic reaction; +: there were found both the reduction of substrate and the formation of cyclotetrasaccharide after the enzymatic reaction; conditions: 2 units/g substrate, 2% (w/v) substrate, 30° C., pH 6.0, 24 hours
Source text: as §1, §2

[3] = test system: α-isomaltosyl-transferring enzyme from Bacillus globisporus C11; test: Action on saccharides (substrates, TLC); parameters: key: −: there was found no substrate change before and after the enzymatic reaction; +: there were found both the reduction of substrate and the formation of cyclotetrasaccharide after the enzymatic reaction; conditions: 2 units/g substrate, 2% (w/v) substrate, 30° C., pH 6.0, 24 hours
Source text: as §1, §2

[4] = test system: α-isomaltosyl-transferring enzyme from Bacillus globisporus C9; test: Action on saccharides (substrates, TLC); parameters: key: −: there was found no substrate change before and after the enzymatic reaction; +: there were found both the reduction of substrate and the formation of cyclotetrasaccharide after the enzymatic reaction; conditions: 2 units/g substrate, 2% (w/v) substrate, 30° C., pH 6.0, 24 hours
Source text: as §1, §2

[5] = test system: α-isomaltosyl-transferring enzyme from Bacillus globisporus N75; test: Action on saccharides (substrates, TLC); parameters: key: −: there was found no substrate change before and after the enzymatic reaction; +: there were found both the reduction of substrate and the formation of cyclotetrasaccharide after the enzymatic reaction; conditions: 2 units/g substrate, 2% (w/v) substrate, 30° C., pH 6.0, 24 hours
Source text: as §1, §2

[6] = test system: α-isomaltosyl-transferring enzyme from Arthrobacter globiformis A19; test: Specificity to transferring acceptor; conditions: partially purified enzyme, panose as saccharide donor, 10 units/g substrate, 3.2% (w/v), 30° C., pH 6.0, 24 hours
How it was run: (§3)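 Panose donor + test saccharide (equimolar-equal conc.), 3.2% (w/v) total, 10 units/g substrate enzyme; 30° C., pH 6.0, 24 h. GLC (FID) for mono/disaccharide acceptors, HPLC (RI) for tri- and larger. Scored +/−.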

[7] = test system: α-isomaltosyl-transferring enzyme from Arthrobacter ramosus S1; test: Specificity to transferring acceptor; conditions: panose as saccharide donor, 10 units/g substrate, 3.2% (w/v), 30° C., pH 6.0, 24 hours
How it was run: as §3

[8] = test system: α-isomaltosyl-transferring enzyme from Bacillus globisporus C11; test: Specificity to transferring acceptor; conditions: panose as saccharide donor, 10 units/g substrate, 3.2% (w/v), 30° C., pH 6.0, 24 hours
How it was run: as §3

[9] = test system: α-isomaltosyl-transferring enzyme from Bacillus globisporus C9; test: Specificity to transferring acceptor; conditions: panose as saccharide donor, 10 units/g substrate, 3.2% (w/v), 30° C., pH 6.0, 24 hours
How it was run: as §3

[10] = test system: α-isomaltosyl-transferring enzyme from Bacillus globisporus N75; test: Specificity to transferring acceptor; conditions: panose as saccharide donor, 10 units/g substrate, 3.2% (w/v), 30° C., pH 6.0, 24 hours
How it was run: as §3

| Enzymatic action for forming cyclotetrasaccharide, Enzyme of Strain A19 [1] | Enzymatic action for forming cyclotetrasaccharide, Enzyme of Strain S1 [2] | Enzymatic action for forming cyclotetrasaccharide, Enzyme of Strain C11 [3] | Enzymatic action for forming cyclotetrasaccharide, Enzyme of Strain C9 [4] | Enzymatic action for forming cyclotetrasaccharide, Enzyme of Strain N75 [5] | SMILES | Product of transferring reaction, Enzyme of Stain A19 [6] | Product of transferring reaction, Enzyme of Strain S1 [7] | Product of transferring reaction, Enzyme of Strain C11 [8] | Product of transferring reaction, Enzyme of Strain C9 [9] | Product of transferring reaction, Enzyme of Strain N75 [10] |
| --- | --- | --- | --- | --- | --- | --- | --- | --- | --- | --- |
| − | − | − | − | − | OC[C@H]1O[C@@H](OC[C@H]2OC(O)[C@H](O)[C@@H](O)[C@@H]2O)[C@H](O)[C@@H](O)[C@@H]1O (some centres unmarked) [Gentibiose, gentibiose] | + (a saccharide-transferred product was formed in an amount of over one percent but below 10% to the total sugars) | + (a saccharide-transferred product was formed in an amount of over one percent but below 10% to the total sugars) | ++ (a saccharide-transferred product was formed in an amount of over 10% to the total sugars) | ++ (a saccharide-transferred product was formed in an amount of over 10% to the total sugars) | ++ (a saccharide-transferred product was formed in an amount of over 10% to the total sugars) |
| − | − | − | − | − | OC[C@H]1O[C@H](OC[C@H]2OC(O)[C@H](O)[C@@H](O)[C@@H]2O)[C@H](O)[C@@H](O)[C@@H]1O (some centres unmarked) [Isomaltose, isomaltose] | ++ (a saccharide-transferred product was formed in an amount of over 10% to the total sugars) | ++ (a saccharide-transferred product was formed in an amount of over 10% to the total sugars) | ++ (a saccharide-transferred product was formed in an amount of over 10% to the total sugars) | ++ (a saccharide-transferred product was formed in an amount of over 10% to the total sugars) | ++ (a saccharide-transferred product was formed in an amount of over 10% to the total sugars) |
| − | − | − | − | − | OC[C@H]1O[C@H](OC[C@H]2O[C@H](OC[C@H]3OC(O)[C@H](O)[C@@H](O)[C@@H]3O)[C@H](O)[C@@H](O)[C@@H]2O)[C@H](O)[C@@H](O)[C@@H]1O (some centres unmarked) [Isomaltotriose, isomaltotriose] | + (a saccharide-transferred product was formed in an amount of over one percent but below 10% to the total sugars) | ++ (a saccharide-transferred product was formed in an amount of over 10% to the total sugars) | + (a saccharide-transferred product was formed in an amount of over one percent but below 10% to the total sugars) | + (a saccharide-transferred product was formed in an amount of over one percent but below 10% to the total sugars) | + (a saccharide-transferred product was formed in an amount of over one percent but below 10% to the total sugars) |
| − | − | − | − | − | OC[C@H]1O[C@H](O[C@H]2[C@H](O)[C@@H](O)[C@@H](OC[C@H]3OC(O)[C@H](O)[C@@H](O)[C@@H]3O)O[C@@H]2CO)[C@H](O)[C@@H](O)[C@@H]1O (some centres unmarked) [Isopanose, isopanose] | + (a saccharide-transferred product was formed in an amount of over one percent but below 10% to the total sugars) | + (a saccharide-transferred product was formed in an amount of over one percent but below 10% to the total sugars) | + (a saccharide-transferred product was formed in an amount of over one percent but below 10% to the total sugars) | + (a saccharide-transferred product was formed in an amount of over one percent but below 10% to the total sugars) | + (a saccharide-transferred product was formed in an amount of over one percent but below 10% to the total sugars) |
| − | − | − | − | − | OC[C@H]1O[C@H](O[C@H]2C(O)O[C@H](CO)[C@@H](O)[C@@H]2O)[C@H](O)[C@@H](O)[C@@H]1O (some centres unmarked) [Kojibiose, kojibiose] | + (a saccharide-transferred product was formed in an amount of over one percent but below 10% to the total sugars) | + (a saccharide-transferred product was formed in an amount of over one percent but below 10% to the total sugars) | + (a saccharide-transferred product was formed in an amount of over one percent but below 10% to the total sugars) | + (a saccharide-transferred product was formed in an amount of over one percent but below 10% to the total sugars) | + (a saccharide-transferred product was formed in an amount of over one percent but below 10% to the total sugars) |
